{
  "source": "paper PMC9698716",
  "about": "“From Serendipity to Rational Identification of the 5,6,7,8-Tetrahydrobenzo[4,5]thieno[2,3-d]pyrimidin-4(3H)-one Core as a New Chemotype of AKT1 Inhibitors for Acute Myeloid Leukemia” (Pharmaceutics, 2022)",
  "key": {"[1]": {"tested_on": "normal donor CD34+ hematopoietic stem/progenitor cells (HSPC)", "assay": "Colony forming unit (CFU) assay", "format": "cell-based, human", "conditions": "14 days", "from_the_text": "The human AML cell lines, OCI-AML3 (carrying the NPM1 gene mutation A and the DNMT3A^R882C mutation), IMS-M2 (carrying the NPM1 gene mutation A), OCI-AML2 (with the wild-type NPM1 and DNMT3A^R635W mutation), and SKM-1 and MOLM-13 (with the wild-type NPM1) were previously reported. The cell lines were purchased from the Deutsche Sammelung von Mikroorganismen und Zellkulturen (DSMZ) (Braunschweig, Germany) cell bank and maintained according to the vendors’ instructions. Briefly, cultured cells were split every 3 days and maintained in an exponential growth phase. The cell lines were tested for mycoplasma using the Universal Mycoplasma Detection Kit (ATCC). The OCI-AML3 were grown in α-MEM supplemented with 20% fetal bovine serum, 100 U/mL penicillin, and 100 μg/mL streptomycin (P/S), and all other cell lines were cultured in RPMI and supplemented with a 10–20% fetal bovine serum and 100 U/mL penicillin and 100 μg/mL streptomycin. The cells were kept at 37 °C in a 5% CO2 incubator. Prior to screening, the appropriate cell concentration for all cell lines was determined. […] The metabolic cell activity was measured by using the CellTiter Blue proliferation agent (Roche) as described in the manufacturer’s procedure. […] The fluorescence intensity was measured using the automated Tecan plate reader (Tecan Group Ltd., Männedorf, Switzerland) at an excitation/emission wavelength of 531/572 nm. The fluorescence readouts were reported as relative fluorescence units (RFU) and read on a luminescence plate reader (Infinite 200 Pro, Tecan, CA, USA). […] The results are expressed as mean ± standard error of the mean (SEM). […]\nFor the CFU assay, 500 CD34+ human cells were plated in a MethoCult™ enriched medium (see Table S4) on a 6-well plate (untreated cells versus T126 at 1, 2.5, and 5 µM, each condition in triplicate). The plates were then incubated for 14 days at 37 °C (5% CO2), and the images were captured and the colonies counted by STEMvision™. […]"}, "OCI-AML2 [2]": {"tested_on": "OCI-AML2", "assay": "Cell growth, viable cell count by trypan blue exclusion", "format": "cell-based, human", "conditions": "OCI-AML2, 5 µM, at 48 and 72 h"}, "[3]": {"assay": "Solubility screen assay to determine chemical aggregation (nephelometry)", "format": "physicochemical", "conditions": "AKT1 assay buffer pH 7.5, 37 °C, 2 h, NEPHELOstar Plus", "experimental": "The stock solutions (10–2 M) of the compound T126 were diluted to a decreased molarity, from 100 µM to 0.0001 µM, in 384-well transparent plates (Greiner 781801) with 1% DMSO: 99% buffer Hepes 100 mM, DMSO 4%, Brij 0.003%, Tween 20 0.004%, MgCl2 10 mM, at a pH = 7.5. Incubation occurred at 37 °C and the results were read after 2 h in a NEPHELOstar Plus (BMG LABTECH, Ortenberg, Germany). The results were adjusted to a segmented regression to obtain the maximum concentration in which the compounds were soluble."}, "OCI-AML2 [4]": {"tested_on": "OCI-AML2", "assay": "CellTiter Blue cell viability assay", "format": "cell-based, human", "conditions": "Homo sapiens, OCI-AML2, 48 h; read-out: cellular IC50", "from_the_text": "(§1) The human AML cell lines, OCI-AML3 (carrying the NPM1 gene mutation A and the DNMT3A^R882C mutation), IMS-M2 (carrying the NPM1 gene mutation A), OCI-AML2 (with the wild-type NPM1 and DNMT3A^R635W mutation), and SKM-1 and MOLM-13 (with the wild-type NPM1) were previously reported. The cell lines were purchased from the Deutsche Sammelung von Mikroorganismen und Zellkulturen (DSMZ) (Braunschweig, Germany) cell bank and maintained according to the vendors’ instructions. Briefly, cultured cells were split every 3 days and maintained in an exponential growth phase. The cell lines were tested for mycoplasma using the Universal Mycoplasma Detection Kit (ATCC). The OCI-AML3 were grown in α-MEM supplemented with 20% fetal bovine serum, 100 U/mL penicillin, and 100 μg/mL streptomycin (P/S), and all other cell lines were cultured in RPMI and supplemented with a 10–20% fetal bovine serum and 100 U/mL penicillin and 100 μg/mL streptomycin. The cells were kept at 37 °C in a 5% CO2 incubator. Prior to screening, the appropriate cell concentration for all cell lines was determined. For the cell lines’ treatments, cells were maintained as follows: OCI-AML3 at 0.25 × 10^6/mL, OCI-AML2 and IMS-M2 at 0.35 × 10^6/mL, and SKM-1 and MOLM-13 at 0.5 × 10^6/mL. The compounds were re-suspended at 10 mM stock in DMSO. Further dilutions were performed in phosphate-buffer-saline (PBS) for pharmacological experiments. The cells were exposed to compounds at different concentrations for the indicated time points and sampled as described below. Briefly, the cells (4 × 10^5/mL) were seeded in 384-well plate and treated for 48 h with various concentrations (0.001 μM to 100 μM) of either one of the compounds, T101, T126, and T159, or NSC348884, as a positive control. Each plate included DMSO at 0.1% as a negative control. The metabolic cell activity was measured by using the CellTiter Blue proliferation agent (Roche) as described in the manufacturer’s procedure. Briefly, CellTiter Blue solution (Resazaurin) was added to each well and the plates were incubated at 37 °C with 5% CO2 for 4 h. During the incubation time, the resazurin is reduced to fluorescent resorufin in metabolically and proliferating living cells. The fluorescence intensity was measured using the automated Tecan plate reader (Tecan Group Ltd., Männedorf, Switzerland) at an excitation/emission wavelength of 531/572 nm. The fluorescence readouts were reported as relative fluorescence units (RFU) and read on a luminescence plate reader (Infinite 200 Pro, Tecan, CA, USA). The dose response curves ([…] (IC50)) were obtained by non-linear regression analysis using the GraphPad Prism 5.0 program. The concentration is shown as a logarithmic function. All the experiments were performed at least in triplicate, with technical repetition. The results are expressed as mean ± standard error of the mean (SEM). For the Colony Forming Unit (CFU) assay, 10 × 10^6 CD34+ human hematopoietic progenitors were received from unique healthy donors, upon signed informed consent, and were cultured in SFEM II (Serum-free medium) and P/S at a density of 1 × 10^6/mL with cytokines that are important for cell division and self-renewal: fms-like tyrosine kinase 3 (FLT3)-ligand, FLT3L (100 ng/mL), Stem Cell Factor, SCF (100 ng/mL) and Trombopoietin, and TPO (50 ng/mL) for 48 h before plating them on a Methocult medium."}, "IMS-M2": {"tested_on": "IMS-M2", "assay": "CellTiter Blue cell viability assay", "format": "cell-based, human", "conditions": "Homo sapiens, IMS-M2, 48 h; read-out: cellular IC50", "from_the_text": "as §1"}, "OCI-AML3": {"tested_on": "OCI-AML3", "assay": "CellTiter Blue cell viability assay", "format": "cell-based, human", "conditions": "Homo sapiens, OCI-AML-3; OCI-AML3, 48 h; read-out: cellular IC50", "from_the_text": "as §1"}, "SKM-1": {"tested_on": "SKM-1", "assay": "CellTiter Blue cell viability assay", "format": "cell-based, human", "conditions": "Homo sapiens, SKM-1, 48 h; read-out: cellular IC50", "from_the_text": "as §1"}, "MOLM-13": {"tested_on": "MOLM-13", "assay": "CellTiter Blue cell viability assay", "format": "cell-based, human", "conditions": "Homo sapiens, MOLM-13, 48 h; read-out: cellular IC50", "from_the_text": "as §1"}},
  "data": [
    {"smiles": "O=c1[nH]c(-c2ccc(O)c(O)c2)nc2sc3c(c12)CCCC3", "note": "[T126]", "values": [
      {"measurement": "colony forming ability of human CD34+ HSPC", "setting": "[1]; 1 µM", "result": "did not inhibit"},
      {"measurement": "colony forming ability of human CD34+ HSPC", "setting": "[1]; 2.5 µM", "result": "did not inhibit"},
      {"measurement": "decrease of clonogenic efficiency compared to untreated control", "setting": "[1]; 5 µM", "result": "about 20%"},
      {"measurement": "cell growth inhibition", "setting": "OCI-AML2 [2]", "result": "significant cell growth inhibition"},
      {"measurement": "concentration up to which no aggregation occurs", "setting": "[3]", "result": "≥ 100", "unit": "µM"},
      {"measurement": "IC50", "setting": "OCI-AML2 [4]", "result": 2.4, "unit": "µM"},
      {"measurement": "IC50", "setting": "IMS-M2", "result": 4.3, "unit": "µM"},
      {"measurement": "IC50", "setting": "OCI-AML3", "result": 4.2, "unit": "µM"},
      {"measurement": "IC50", "setting": "SKM-1", "result": 6.9, "unit": "µM"},
      {"measurement": "IC50", "setting": "MOLM-13", "result": 9.2, "unit": "µM"}
    ]}
  ]
}
